The test system of the experiment is FVB mice expressing luciferase in brain tissue. In words: In vivo bioluminescence imaging in brains of FVB mice injected with AAV9-luc+ in the striatum. The settings on record: for light emission in brains of live mice (qualitative): mouse, in vivo. The method, then:
FVB mice were injected with AAV9-luc+ in the brain striatum. Bioluminescence assays were performed approximately nine months after AAV injection. Each luciferin amide was diluted into PBS to the indicated concentration from a 50 mM DMSO stock solution and filtered (0.22 μm) prior to intraperitoneally injection (0.1 mL per mouse). Mice were anesthetized with isoflurane (2% in 1 L/min oxygen) and images acquired on a Xenogen IVIS 100 imaging system and analyzed with Living Image software.
Certain luciferin amides described herein were tested to determine whether they would image well in live mice. For these studies, FVB mice were injected with adeno-associated virus 9 (AAV9)-luciferase constructs into the brain striatum.
Bioluminescence imaging (BLI) in the brain is more challenging than imaging in the rest of the organism, in part because a luciferase substrate (i.e., a luciferin) must cross the blood-brain barrier. Therefore, the ability of a synthetic luciferin (i.e., Compound 9's corresponding luciferin (CycLuc1)) to allow bioluminescence imaging in these mice, as compared to the native firefly luciferase substrate (i.e., D-luciferin) was first tested. Specifically, each substrate was injected intraperitoneally (IP) in PBS at a volume of 0.1 mL, D-luciferin being at a concentration of 100 mM and CycLuc1 being at a concentration of 5 mM. […] CycLuc1 was then injected at a 320-fold lower dose (0.06 mL of 0.5 mM) than D-luciferin.
Specifically, Compound 9 (i.e., CycLuc1 amide) was injected at 0.5 mM in 0.5% DMSO/PBS (0.06 mL).
In this figure, mice in the top row were treated with luciferin amides in the amounts indicated in the figure, and the mice in the bottom row were the same mice that were imaged one day later using a standard dose of D-luciferin.

On to `CC(C)CNc1ccc2nc(C3=N[C@@H](C(N)=O)CS3)sc2c1` [Compound 3, (S)-4,5-dihydro-2-(6-(isobutylamino)benzo[d]-thiazol-2-yl)thiazole-4-carboxamide], for which the “light emission in brains of live mice (qualitative)” value was “relatively strong light emission”. The same measure, in the same setting: then `NC(=O)[C@H]1CSC(c2nc3ccc(NCCCO)cc3s2)=N1` [Compound 4, (S)-2-(6-(3-hydroxypropylamino)benzo[d]-thiazol-2-yl)-4,5-dihydrothiazole-4-carboxamide], with “relatively weak light emission”; and `CCNc1ccc2nc(C3=N[C@@H](C(N)=O)CS3)sc2c1` [Compound 6, (S)-2-(6-(ethylamino)benzo[d]thiazol-2-yl)-4,5-dihydrothiazole-4-carboxamide], with “relatively strong light emission”; and `CCNc1ccc2nc(C3=N[C@@H](C(=O)NC)CS3)sc2c1` [Compound 7, (S)-2-(6-(ethylamino)benzo[d]thiazol-2-yl)-4,5-dihydro-N-methylthiazole-4-carboxamide], with “relatively strong light emission”. On to `NC(=O)[C@H]1CSC(c2nc3cc4c(cc3s2)NCCC4)=N1` [Compound 14, (S)-2-(5,6,7,8-tetrahydrothiazolo[4,5-g]quinolin-2-yl)-4,5-dihydrothiazole-4-carboxamide], for which the “Photon flux after treatment with luciferin analogs” value (100 μM) is reported as 1.43E+07 p/s. Also, where the note is “0.1 mM”, the “improved signal over 100 mM D-luciferin” value is given as “more than 10 fold”. In the case of `O=C(O)[C@H]1CSC(c2nc3ccc(O)cc3s2)=N1` [D-luciferin, reference compound], the “Photon flux after treatment with luciferin analogs” value (100 mM) is 1.21E+06 p/s. Regarding “Me2N-luciferin methyl ester [reference compound]”, the “light emission in brains of live mice (qualitative)” value is on record as “relatively weak light emission”.

The record behind these values is patent US9814787B2, “Luciferin amides” (University of Massachusetts, priority 2013, dated 2017).
